Measured values from patent US9302999B2, “Substituted triazoles as herbicides” (E. I. DU PONT DE NEMOURS AND COMPANY, priority 2012, dated 2016).

Assays:
Assay type in all cases: in vivo
[1] = test system: crabgrass, large (large crabgrass, Digitaria sanguinalis); assay: Test A pre-/postemergence: crabgrass, large
How it was run: (§1)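 Compounds, formulated with surfactant in non-phytotoxic solvent, were applied as a directed soil spray preemergence and as postemergence sprays to 2–10 cm, one- to two-leaf seedlings grown in loam soil blended with sand; visual injury, 0–100, assessed ~10 days post-treatment against untreated controls.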

[2] = test system: foxtail, giant (giant foxtail, Setaria faberii); assay: Test A pre-/postemergence: foxtail, giant
How it was run: as §1

[3] = test system: pigweed (Amaranthus retroflexus); assay: Test A pre-/postemergence: pigweed
How it was run: as §1

[4] = test system: velvetleaf (Abutilon theophrasti); assay: Test A pre-/postemergence: velvetleaf
How it was run: as §1

[5] = test system: ducksalad (Heteranthera limosa); assay: Test B flooded paddy: ducksalad; settings: Flood, applied to paddy water at 2-leaf stage, visually evaluated after 13 to 15 days
How it was run: (§2)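 Response scored visually, 0–100 relative to controls, 13–15 days after the compound was applied into paddy water; plants were at the 2-leaf stage in pots kept flooded to 3 cm.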

[6] = test system: barnyardgrass (Echinochloa crus-galli); assay: Test B flooded paddy: barnyardgrass; settings: Flood, applied to paddy water at 2-leaf stage, visually evaluated after 13 to 15 days
How it was run: as §2

wild oat (Avena fatua) = assay: Test C pre-/postemergence: wild oat; settings: Postemergence
How it was run: (§3)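 Preemergence on seeds in loam/sand, postemergence on 2–18 cm (1–4-leaf) plants in peat-based medium; compounds in non-phytotoxic solvent with surfactant. After 13–15 days in greenhouse, visual rating versus controls, 0 (no effect) to 100 (complete control).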

[7] = test system: foxtail, giant (giant foxtail, Setaria faberii); assay: Test C pre-/postemergence: foxtail, giant
How it was run: as §3

kochia (Kochia scoparia) = assay: Test C pre-/postemergence: kochia; settings: Postemergence
How it was run: as §3

[8] = test system: ragweed (common ragweed, Ambrosia elation); assay: Test C pre-/postemergence: ragweed
How it was run: as §3

[9] = test system: chickweed (common chickweed, Stellaria media); assay: Test C postemergence: chickweed
How it was run: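 Pot-grown plants in peat/vermiculite medium sprayed postemergence at 2–18 cm height (1- to 4-leaf stage). Kept in greenhouse 13 to 15 days, then visually rated against untreated controls on a 0–100 scale (0 = no effect, 100 = complete control).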

[10] = Postemergence, 125 g ai/ha, 0 to 100 scale, 0 is no effect, 100 is complete control
[11] = Postemergence, 500 g ai/ha, 0 to 100 scale, 0 is no effect, 100 is complete control
[12] = Preemergence, 125 g ai/ha, 0 to 100 scale where 0 is no effect and 100 is complete control
[13] = Preemergence, 500 g ai/ha, 0 to 100 scale (0 no effect, 100 complete control)
[14] = 31 g ai/ha, scale 0 to 100 (0 no effect, 100 complete control)
[15] = 62 g ai/ha, scale 0 to 100 (0 no effect, 100 complete control)
[16] = 125 g ai/ha, scale 0 to 100, 0 no effect, 100 complete control
[17] = 250 g ai/ha, scale 0 to 100 (0 no effect, 100 complete control)
[18] = Postemergence, 31 g ai/ha, scale 0 to 100 (0 no effect, 100 complete control)
[19] = Postemergence, 62 g ai/ha, scale 0 to 100 (0 no effect, 100 complete control)
[20] = Postemergence, 125 g ai/ha, scale 0 to 100, 0 no effect, 100 complete control
[21] = Postemergence, 250 g ai/ha, scale 0 to 100
[22] = Preemergence, 31 g ai/ha, scale 0 (no effect) to 100 (complete control)
[23] = Preemergence, 62 g ai/ha, scale of 0 to 100, 0 is no effect, 100 is complete control
[24] = Preemergence, 125 g ai/ha, scale 0 to 100, 0 no effect, 100 complete control
[25] = Preemergence, 250 g ai/ha, scale 0 to 100, 0 no effect, 100 complete control
[26] = Postemergence, 250 g ai/ha, scale 0 to 100 (0 no effect, 100 complete control)

CCCc1nn(-c2ccc(F)c(F)c2)nc1Oc1ccnc(C(F)(F)F)c1 [Compound 172]
90: Plant response rating, Crabgrass, Large [1, 10] | Plant response rating, Foxtail, Giant [2, 10] | Foxtail, Giant plant response rating [2, 11] | Plant response rating, Velvetleaf [4, 10] | Plant response rating, Velvetleaf [4, 13] | Plant response rating, Kochia (kochia (Kochia scoparia); [14]) | Plant response rating, Kochia (kochia (Kochia scoparia); [15]) | Plant response rating, Kochia (kochia (Kochia scoparia); [16]) | Plant response rating, Kochia (kochia (Kochia scoparia); [17]) | Plant response rating, Chickweed [9, 16] | Plant response rating, Chickweed ([9]; 250 g ai/ha, scale 0 to 100)
35: Plant response rating, Foxtail, Giant [7, 18] | Plant response rating, Foxtail, Giant [7, 19] | Plant response rating, Ragweed [8, 22]
100: Crabgrass, Large plant response rating [1, 11] | Plant response rating, Crabgrass, Large [1, 12] | Plant response rating, Crabgrass, Large [1, 13] | Plant response rating, Foxtail, Giant [2, 12] | Plant response rating, Foxtail, Giant [2, 13] | Plant response rating, Pigweed [3, 10] | Pigweed plant response rating [3, 11] | Plant response rating, Pigweed [3, 12] | Plant response rating, Pigweed [3, 13] | Velvetleaf plant response rating [4, 11] | Plant response rating, Foxtail, Giant [7, 22] | Plant response rating, Foxtail, Giant [7, 23] | Plant response rating, Foxtail, Giant [7, 24] | Plant response rating, Foxtail, Giant [7, 25]
75: Plant response rating, Ragweed [8, 18] | Plant response rating, Ragweed [8, 19]
45: Plant response rating, Oat, Wild (wild oat (Avena fatua); [16])
0: Plant response rating, Ducksalad (0 to 100 scale, 0 is no effect, 100 is complete control) ([5]; 250 g ai/ha)
20: Plant response rating, Oat, Wild (wild oat (Avena fatua); [15])
40: Plant response rating, Ragweed [8, 23]
65: Plant response rating, Chickweed [9, 14]
85: Plant response rating, Ragweed [8, 25] | Plant response rating, Chickweed [9, 15]
15: Plant response rating, Oat, Wild (wild oat (Avena fatua); [14])
80: Plant response rating, Velvetleaf [4, 12] | Plant response rating, Barnyardgrass (0 to 100 scale, 0 is no effect, 100 is complete control) ([6]; 250 g ai/ha) | Plant response rating, Oat, Wild (wild oat (Avena fatua); [17]) | Plant response rating, Foxtail, Giant [7, 20] | Plant response rating, Ragweed [8, 20] | Plant response rating, Ragweed [8, 26] | Plant response rating, Ragweed [8, 24]
95: Plant response rating, Foxtail, Giant [7, 21]

CCCc1nn(-c2ccc(F)cc2F)nc1Oc1ccnc(C(F)(F)F)c1 [Compound 179]
35: Plant response rating, Oat, Wild (wild oat (Avena fatua); [16]) | Plant response rating, Foxtail, Giant [7, 18]
80: Plant response rating, Velvetleaf [4, 12] | Plant response rating, Foxtail, Giant [7, 21] | Plant response rating, Kochia (kochia (Kochia scoparia); [14]) | Plant response rating, Chickweed [9, 15]
20: Plant response rating, Oat, Wild (wild oat (Avena fatua); [15])
60: Plant response rating, Ragweed [8, 20]
50: Plant response rating, Oat, Wild (wild oat (Avena fatua); [17]) | Plant response rating, Ragweed [8, 18]
90: Plant response rating, Crabgrass, Large [1, 10] | Crabgrass, Large plant response rating [1, 11] | Plant response rating, Foxtail, Giant [2, 10] | Foxtail, Giant plant response rating [2, 11] | Plant response rating, Velvetleaf [4, 10] | Plant response rating, Kochia (kochia (Kochia scoparia); [15]) | Plant response rating, Kochia (kochia (Kochia scoparia); [16]) | Plant response rating, Kochia (kochia (Kochia scoparia); [17])
100: Plant response rating, Crabgrass, Large [1, 12] | Plant response rating, Crabgrass, Large [1, 13] | Plant response rating, Foxtail, Giant [2, 12] | Plant response rating, Foxtail, Giant [2, 13] | Plant response rating, Pigweed [3, 10] | Pigweed plant response rating [3, 11] | Plant response rating, Pigweed [3, 12] | Plant response rating, Pigweed [3, 13] | Velvetleaf plant response rating [4, 11] | Plant response rating, Velvetleaf [4, 13] | Plant response rating, Foxtail, Giant [7, 22] | Plant response rating, Foxtail, Giant [7, 23] | Plant response rating, Foxtail, Giant [7, 24] | Plant response rating, Foxtail, Giant [7, 25]
10: Plant response rating, Oat, Wild (wild oat (Avena fatua); [14])
40: Plant response rating, Foxtail, Giant [7, 19] | Plant response rating, Ragweed [8, 22] | Plant response rating, Ragweed [8, 23]
55: Plant response rating, Foxtail, Giant [7, 20] | Plant response rating, Ragweed [8, 19]
85: Plant response rating, Chickweed [9, 16]
0: Plant response rating, Barnyardgrass (0 to 100 scale, 0 is no effect, 100 is complete control) ([6]; 125 g ai/ha)
65: Plant response rating, Ducksalad (0 to 100 scale, 0 is no effect, 100 is complete control) ([5]; 125 g ai/ha)
45: Plant response rating, Ragweed [8, 24] | Plant response rating, Ragweed [8, 25]
95: Plant response rating, Chickweed ([9]; 250 g ai/ha, scale 0 to 100)
75: Plant response rating, Ragweed [8, 26] | Plant response rating, Chickweed [9, 14]

CCc1nn(-c2ccc(C(F)(F)F)c(F)c2)nc1Oc1ccnc(C(F)(F)F)c1 [Compound 183]
30: Plant response rating, Barnyardgrass (0 to 100 scale, 0 is no effect, 100 is complete control) ([6]; 125 g ai/ha) | Plant response rating, Oat, Wild (wild oat (Avena fatua); [14])
90: Plant response rating, Crabgrass, Large [1, 10] | Crabgrass, Large plant response rating [1, 11] | Plant response rating, Foxtail, Giant [2, 10] | Foxtail, Giant plant response rating [2, 11] | Plant response rating, Kochia (kochia (Kochia scoparia); [14]) | Plant response rating, Kochia (kochia (Kochia scoparia); [15]) | Plant response rating, Kochia (kochia (Kochia scoparia); [16]) | Plant response rating, Ragweed [8, 20]
65: Plant response rating, Ducksalad (0 to 100 scale, 0 is no effect, 100 is complete control) ([5]; 125 g ai/ha) | Plant response rating, Foxtail, Giant [7, 20] | Plant response rating, Ragweed [8, 18]
70: Plant response rating, Velvetleaf [4, 12]
40: Plant response rating, Oat, Wild (wild oat (Avena fatua); [15])
95: Plant response rating, Kochia (kochia (Kochia scoparia); [17]) | Plant response rating, Ragweed [8, 26] | Plant response rating, Ragweed [8, 24] | Plant response rating, Ragweed [8, 25]
50: Plant response rating, Ragweed [8, 22] | Plant response rating, Ragweed [8, 23]
80: Plant response rating, Velvetleaf [4, 13] | Plant response rating, Ragweed [8, 19] | Plant response rating, Chickweed [9, 16]
98: Plant response rating, Chickweed ([9]; 250 g ai/ha, scale 0 to 100)
85: Plant response rating, Oat, Wild (wild oat (Avena fatua); [17]) | Plant response rating, Foxtail, Giant [7, 21]
55: Plant response rating, Oat, Wild (wild oat (Avena fatua); [16])
45: Plant response rating, Foxtail, Giant [7, 18] | Plant response rating, Foxtail, Giant [7, 19]
100: Plant response rating, Crabgrass, Large [1, 12] | Plant response rating, Crabgrass, Large [1, 13] | Plant response rating, Foxtail, Giant [2, 12] | Plant response rating, Foxtail, Giant [2, 13] | Plant response rating, Pigweed [3, 10] | Pigweed plant response rating [3, 11] | Plant response rating, Pigweed [3, 12] | Plant response rating, Pigweed [3, 13] | Plant response rating, Velvetleaf [4, 10] | Velvetleaf plant response rating [4, 11] | Plant response rating, Foxtail, Giant [7, 22] | Plant response rating, Foxtail, Giant [7, 23] | Plant response rating, Foxtail, Giant [7, 24] | Plant response rating, Foxtail, Giant [7, 25]
75: Plant response rating, Chickweed [9, 14] | Plant response rating, Chickweed [9, 15]
